Laboratory results: patent publication US9718819B2 (Merck Sharp & Dohme Corp., priority 2012, dated 2017)
pIC50: −log10 of the molar value.

Legend:
[1] = molecular target: HIV-1 RT wild-type enzyme (Human immunodeficiency virus type 1 group M subtype B (isolate HXB2) (HIV-1), UniProt P04585); test: HIV-1 reverse transcriptase inhibitory activity (RT polymerase assay); format: biochemical; conditions: HIV-1 RT wild-type enzyme 83 pM; RNA-dependent DNA polymerase activity; read-out: IC50
Procedure, shortened: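 Enzyme and compound were preincubated 30 min at room temperature, then RNA/DNA hybrid (16.6 nM final; HCV-derived RNA, biotinylated primer) plus 2 μM dNTPs and 66.6 nM Ru-dUTP added, 90 min at 37 °C. Avidin capture and ECL counting; percent inhibition relative to DMSO (0%) and 1 μM efavirenz (100%), four-parameter IC50 fit.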

[2] = Determination of PK parameters in dog after intravenous bolus; format: in vivo, Male beagle dogs; conditions: male beagle dog, plasma, 50% DMSO in PEG400, read-out: Dog t1/2 (terminal half-life) (converted)
Experimental: Determination of PK Parameters Male beagle dogs (weight 9-13 kg) were fasted overnight and housed individually. Water was provided ad lib throughout the study. Food was allowed approximately 4 hr post dose. […] The formulations were given intravenous as a bolus injection into the cephalic vein. The vein used for the dosing will not be used for the blood sample collection for the first 4 hr post-dose). […] EDTA was used as anticoagulant and approximately 0.5 mL aliquots of blood samples were collected at each time point. […] Test compound concentration in dog plasma was determined using a LC/MS/MS method. Typically the LC/MS/MS system consisted of an ACQUITY UPLC system with autosampler system refrigerated at 4° C. during analysis, and an API 4000 mass spectrometer. […] The mobile phase consisting of a solvent A (0.1% formic acid in water/acetonitrile (95/5)) and solvent B (0.1% formic acid in acetonitrile/water (95/5)) was delivered at a flow rate of 600 μL/min. […] Mass spectrometric detection of the analytes is accomplished using either an ESI or APCI interface operated in the positive or negative ionization mode. Analyte response is measured by multiple reaction monitoring (MRM) of transitions unique to each compound […]

## N#Cc1cc(Cl)cc(Oc2c(C(F)(F)F)ncn(Cc3cc(C(F)(F)F)c(=O)[nH]n3)c2=O)c1 [Example 6, 3-chloro-5-((6-oxo-1-((6-oxo-5-(trifluoromethyl)-1,6-dihydropyridazin-3-yl)methyl)-4-(trifluoromethyl)-1,6-dihydropyrimidin-5-yl)oxy)benzonitrile]
[1]
  pIC50: 8.10
[2]
  half-life: 72 h

## N#Cc1cc(Cl)cc(Oc2c(C(F)(F)F)ncn(Cc3ccc(=O)[nH]n3)c2=O)c1 [Example 7, 3-chloro-5-((6-oxo-1-((6-oxo-1,6-dihydropyridazin-3-yl)methyl)-4-(trifluoromethyl)-1,6-dihydropyrimidin-5-yl)oxy)benzonitrile]
[1]
  pIC50: 8.10
[2]
  half-life: 28 h

## N#Cc1cc(Cl)cc(Oc2c(C(F)(F)F)ncn(Cc3cc(-c4ccc(C#N)c(F)c4)c(=O)[nH]n3)c2=O)c1 [Example 68, 4-(6-((5-(3-chloro-5-cyanophenoxy)-6-oxo-4-(trifluoromethyl)pyrimidin-1(6H)-yl)methyl)-3-oxo-2,3-dihydropyridazin-4-yl)-2-fluorobenzonitrile]
[1]
  pIC50: 8.15
[2]
  half-life: 25 h

## N#Cc1cc(Cl)cc(Oc2c(C(F)(F)F)ncn(Cc3cc(-c4ccc(F)cc4)c(=O)[nH]n3)c2=O)c1 [Example 77, 3-chloro-5-((1-((5-(4-fluorophenyl)-6-oxo-1,6-dihydropyridazin-3-yl)methyl)-6-oxo-4-(trifluoromethyl)-1,6-dihydropyrimidin-5-yl)oxy)benzonitrile]
[1]
  pIC50: 8.40
[2]
  half-life: 79 h

## CC(F)(F)c1cc(Cn2cnc(C(F)(F)F)c(Oc3cc(Cl)cc(C#N)c3)c2=O)n[nH]c1=O [Example 104, 3-chloro-5-((1-((5-(1,1-difluoroethyl)-6-oxo-1,6-dihydropyridazin-3-yl)methyl)-6-oxo-4-(trifluoromethyl)-1,6-dihydropyrimidin-5-yl)oxy)benzonitrile]
[1]
  pIC50: 7.82
[2]
  half-life: 24 h

## N#Cc1cc(Cl)cc(Oc2c(C(F)(F)F)ncn(Cc3cc(-c4ccccc4)n[nH]c3=O)c2=O)c1 [Example 110, 3-chloro-5-((6-oxo-1-((3-oxo-6-phenyl-2,3-dihydropyridazin-4-yl)methyl)-4-(trifluoromethyl)-1,6-dihydropyrimidin-5-yl)oxy)benzonitrile]
[1]
  pIC50: 8.52
[2]
  half-life: 20 h

## N#Cc1cc(Cl)cc(Oc2c(C(F)(F)F)ncn(Cc3cc(C4CC4)n[nH]c3=O)c2=O)c1 [Example 117, 3-chloro-5-((1-((6-cyclopropyl-3-oxo-2,3-dihydropyridazin-4-yl)methyl)-6-oxo-4-(trifluoromethyl)-1,6-dihydropyrimidin-5-yl)oxy)benzonitrile]
[1]
  pIC50: 8.22
[2]
  half-life: 30 h

## N#Cc1cc(Cl)cc(Oc2c(C(F)(F)F)ncn(Cc3cc(C(F)F)n[nH]c3=O)c2=O)c1 [Example 128, 3-chloro-5-((1-((6-(difluoromethyl)-3-oxo-2,3-dihydropyridazin-4-yl)methyl)-6-oxo-4-(trifluoromethyl)-1,6-dihydropyrimidin-5-yl)oxy)benzonitrile]
[1]
  pIC50: 8.40
[2]
  half-life: 81 h

## CC(F)(F)c1cc(Cn2cnc(C(F)(F)F)c(Oc3cc(Cl)cc(C#N)c3)c2=O)c(=O)[nH]n1 [Example 129, 3-chloro-5-((1-((6-(1,1-difluoroethyl)-3-oxo-2,3-dihydropyridazin-4-yl)methyl)-6-oxo-4-(trifluoromethyl)-1,6-dihydropyrimidin-5-yl)oxy)benzonitrile]
[1]
  pIC50: 8.22
[2]
  half-life: 126 h

## CC(C)(C)c1ncc(Cn2cnc(C(F)(F)F)c(Oc3cc(Cl)cc(C#N)c3)c2=O)c(=O)[nH]1 [Example 130, 3-((1-((2-(tert-butyl)-6-oxo-1,6-dihydropyrimidin-5-yl)methyl)-6-oxo-4-(trifluoromethyl)-1,6-dihydropyrimidin-5-yl)oxy)-5-chlorobenzonitrile]
[1]
  pIC50: 7.92
[2]
  half-life: 24 h
